The values below come from ChEMBL document CHEMBL1137093, “Synthesis, receptor binding and functional studies of mesoridazine stereoisomers” (Bioorg Med Chem Lett, 2004).

Values joined by “and” are separate entries in the source; they are usually repeats but may differ in a detail not shown here. Equal values may be shown once.

Assay [1] concerns the target T1, D(1A) dopamine receptor (Homo sapiens, UniProt P21728). Kind of assay: Antagonism of D1 dopamine receptor of human was determined in C6D1 low-density cells by using cyclic AMP assay.
Assay [2] is described as follows: Antagonism was determined as concentration required to inhibit quinpirole-induced mitogenesis in CHOp cells.
Assay [3] concerns the target T2, 5-hydroxytryptamine receptor 2A (Rattus norvegicus, UniProt P14842). Put plainly: Binding affinity towards rat 5-hydroxytryptamine 2A receptor was determined by using [3H]-ketanserin as radioligand.
The target of assay [4] is T3, 5-hydroxytryptamine receptor 1A (Homo sapiens, UniProt P08908).
T3 sequence (P08908 whole entry): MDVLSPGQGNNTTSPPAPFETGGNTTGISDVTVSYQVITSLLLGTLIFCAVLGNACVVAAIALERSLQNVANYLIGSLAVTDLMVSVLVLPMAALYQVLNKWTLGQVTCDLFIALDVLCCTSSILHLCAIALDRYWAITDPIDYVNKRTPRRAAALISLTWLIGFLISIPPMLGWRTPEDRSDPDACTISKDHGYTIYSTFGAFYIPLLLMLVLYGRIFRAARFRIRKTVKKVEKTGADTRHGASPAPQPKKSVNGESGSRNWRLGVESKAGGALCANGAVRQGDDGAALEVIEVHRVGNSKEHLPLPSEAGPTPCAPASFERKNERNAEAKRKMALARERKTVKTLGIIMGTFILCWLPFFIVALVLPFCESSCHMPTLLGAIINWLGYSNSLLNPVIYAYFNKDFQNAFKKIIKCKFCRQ
Put plainly: Binding affinity towards human 5-hydroxytryptamine 1A receptor was determined by using [3H]8-OH-DPAT as radioligand.

The target of assay [5] is T4, 5-hydroxytryptamine receptor 2C (Rattus norvegicus, UniProt P08909).
T4 sequence (P08909 whole entry): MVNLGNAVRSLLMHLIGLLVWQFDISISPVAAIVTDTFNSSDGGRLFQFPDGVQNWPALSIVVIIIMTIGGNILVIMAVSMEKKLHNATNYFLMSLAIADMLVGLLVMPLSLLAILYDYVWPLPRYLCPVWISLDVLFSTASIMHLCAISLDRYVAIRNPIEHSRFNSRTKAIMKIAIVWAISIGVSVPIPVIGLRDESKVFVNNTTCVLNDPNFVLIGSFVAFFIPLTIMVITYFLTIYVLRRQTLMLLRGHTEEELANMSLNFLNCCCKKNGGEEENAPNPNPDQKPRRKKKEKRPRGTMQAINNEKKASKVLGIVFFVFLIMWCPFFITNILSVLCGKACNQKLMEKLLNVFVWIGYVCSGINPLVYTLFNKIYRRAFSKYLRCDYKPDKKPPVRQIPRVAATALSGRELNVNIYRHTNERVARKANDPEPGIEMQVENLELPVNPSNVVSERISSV
Put plainly: Binding affinity towards rat 5-hydroxytryptamine 2C receptor was determined by using [3H]mesulergine as radioligand.

The target of assay [6] is T1, D(1A) dopamine receptor.
Description: Binding affinity towards human D1 dopamine receptor was determined by using [3H]-SCH- 23390 as radioligand
Assay [7] has as its target T5, D(2) dopamine receptor (Homo sapiens, UniProt P14416).
Description: Binding affinity towards human D2 dopamine receptor was determined by using [3H]YM-09151-2 as radioligand
For the next assay, the target named is D(3) dopamine receptor (Homo sapiens, UniProt P35462).
The target in assay [8] is T2, 5-hydroxytryptamine receptor 2A. Kind of assay: Antagonism of 5-hydroxytryptamine 2A receptor was determined using rat aortal strip contraction assay.
Assay [9] addresses T5, D(2) dopamine receptor. This is another data set of the same source.
The target of assay [10] is T5, D(2) dopamine receptor. The source holds these as a separate data set.
Description: High binding affinity towards human D2 dopamine receptor was determined by using [3H]YM-09151-2 as radioligand
For assay [11], the target named is T5, D(2) dopamine receptor. The source holds these as a separate data set.
Description: Concentration required to inhibit [3H]YM-09151-2 binding to human D2 dopamine receptor
Assay [12] deals with 5-hydroxytryptamine receptor 2A (Rattus norvegicus) (UniProt P14842).
Chain of 5-hydroxytryptamine receptor 2A (Rattus norvegicus) (P14842 whole entry): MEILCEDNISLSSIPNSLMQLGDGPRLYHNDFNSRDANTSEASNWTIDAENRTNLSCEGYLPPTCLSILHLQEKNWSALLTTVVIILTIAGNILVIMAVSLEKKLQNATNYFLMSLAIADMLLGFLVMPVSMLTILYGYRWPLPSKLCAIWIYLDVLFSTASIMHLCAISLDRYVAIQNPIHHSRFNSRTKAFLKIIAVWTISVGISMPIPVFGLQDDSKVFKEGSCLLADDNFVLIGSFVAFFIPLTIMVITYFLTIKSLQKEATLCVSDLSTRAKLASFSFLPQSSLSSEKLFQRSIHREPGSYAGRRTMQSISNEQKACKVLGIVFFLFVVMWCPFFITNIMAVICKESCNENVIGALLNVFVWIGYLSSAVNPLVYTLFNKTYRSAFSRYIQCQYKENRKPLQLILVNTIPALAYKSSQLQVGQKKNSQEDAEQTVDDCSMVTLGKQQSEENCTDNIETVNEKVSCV

T5 sequence (P14416 whole entry): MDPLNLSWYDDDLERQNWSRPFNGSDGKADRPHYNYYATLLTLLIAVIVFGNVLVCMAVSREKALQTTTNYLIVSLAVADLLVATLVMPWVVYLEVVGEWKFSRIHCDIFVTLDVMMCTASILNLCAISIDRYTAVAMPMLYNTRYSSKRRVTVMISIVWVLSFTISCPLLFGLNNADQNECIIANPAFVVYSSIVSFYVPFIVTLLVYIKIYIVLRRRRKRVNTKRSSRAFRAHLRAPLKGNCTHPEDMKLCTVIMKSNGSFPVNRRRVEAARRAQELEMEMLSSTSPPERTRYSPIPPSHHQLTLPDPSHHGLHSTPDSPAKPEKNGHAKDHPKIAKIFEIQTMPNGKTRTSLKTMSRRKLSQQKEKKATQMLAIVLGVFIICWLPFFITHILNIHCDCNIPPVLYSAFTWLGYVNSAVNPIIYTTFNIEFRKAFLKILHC
T1 sequence (P21728 whole entry): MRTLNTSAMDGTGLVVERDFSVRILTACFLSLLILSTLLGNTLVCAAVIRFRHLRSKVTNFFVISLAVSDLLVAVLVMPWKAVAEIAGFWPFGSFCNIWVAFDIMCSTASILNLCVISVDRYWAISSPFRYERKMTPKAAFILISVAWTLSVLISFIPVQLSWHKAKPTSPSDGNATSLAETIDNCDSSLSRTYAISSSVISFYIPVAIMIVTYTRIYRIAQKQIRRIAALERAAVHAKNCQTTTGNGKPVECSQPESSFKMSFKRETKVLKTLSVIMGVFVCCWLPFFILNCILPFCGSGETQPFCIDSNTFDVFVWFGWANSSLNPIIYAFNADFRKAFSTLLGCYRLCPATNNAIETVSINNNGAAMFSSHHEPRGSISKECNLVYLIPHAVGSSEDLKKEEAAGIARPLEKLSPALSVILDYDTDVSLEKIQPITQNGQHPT
Chain of D(3) dopamine receptor (P35462 whole entry): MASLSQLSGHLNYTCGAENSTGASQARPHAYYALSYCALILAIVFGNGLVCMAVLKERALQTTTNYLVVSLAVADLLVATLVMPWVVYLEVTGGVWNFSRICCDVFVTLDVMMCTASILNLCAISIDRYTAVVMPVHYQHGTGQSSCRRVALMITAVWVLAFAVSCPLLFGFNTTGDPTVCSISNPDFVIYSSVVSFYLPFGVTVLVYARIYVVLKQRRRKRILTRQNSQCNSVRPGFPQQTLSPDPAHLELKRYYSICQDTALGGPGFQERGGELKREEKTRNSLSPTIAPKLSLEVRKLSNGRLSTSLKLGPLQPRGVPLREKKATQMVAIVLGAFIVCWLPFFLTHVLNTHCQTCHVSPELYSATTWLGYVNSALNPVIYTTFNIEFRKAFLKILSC
T2 sequence (P14842 whole entry): as the sequence (P14842 whole entry) above
Description for D(3) dopamine receptor: Binding affinity towards human D3 dopamine receptor was determined by using [3H]YM-09151-2 as radioligand

Usually IC50 stands for the point on the concentration scale where inhibition reaches its midpoint. As usually defined, the Ki is a dissociation constant, usually derived from enzyme kinetics or from competition with a known ligand. A higher Ki goes with lower affinity. As to `CN1CCCC[C@H]1CCN1c2ccccc2Sc2ccc([S@](C)=O)cc21`, the IC50 was 1250 nM against D(1A) dopamine receptor [1]; 232 nM and 408 nM in assay [2]. The Ki in assay [3] stood at 414 nM; in assay [4], 395 nM; in assay [5], 410 nM; at D(1A) dopamine receptor [6], 620 nM; at D(2) dopamine receptor [7], 426 nM; at D(3) dopamine receptor it was 197 nM.
What is called Kb is the affinity of an antagonist, worked out from how it opposes an agonist. Regarding `CN1CCCC[C@@H]1CCN1c2ccccc2Sc2ccc([S@@](C)=O)cc21`, the IC50 against D(1A) dopamine receptor [1] is 460 nM; in [2] it was 4 nM and 16 nM; at D(2) dopamine receptor [11] it was 63 nM. In assay [8], this molecule had a Kb of 2.51 nM. Also, the Ki was 19 nM in assay [3]; 64 nM in [4]; 112 nM in [5]; 1840 nM at D(2) dopamine receptor [9]; 1.2 nM at D(2) dopamine receptor [10]; 317 nM at D(1A) dopamine receptor [6]. Further, the Ki at D(3) dopamine receptor turned out to be 26 nM. Moreover, the Ke in assay [12] stood at 2.5 nM.
With `CN1CCCCC1CCN1c2ccccc2Sc2ccc([S+](C)[O-])cc21` (single isomer, unassigned; 2) [listing 1 of 2 here], the IC50 against D(1A) dopamine receptor [1] is 137 nM; in assay [2], 10 nM and 35 nM; at D(2) dopamine receptor [11], 77 nM. The molecule further gave a Kb in [8] of 6.31 nM. The Ki in [3] amounted to 55 nM; in assay [4], 105 nM; in assay [5] it was 412 nM; at D(2) dopamine receptor [9], 1540 nM; at D(2) dopamine receptor [10], 2.2 nM; on D(1A) dopamine receptor [6] it was 103 nM. The same molecule had a Ki on D(3) dopamine receptor of 23 nM.
Turning to `CN1CCCCC1CCN1c2ccccc2Sc2ccc([S+](C)[O-])cc21` (single isomer, unassigned; 2) [listing 2 of 2 here], the Ke in [12] amounted to 7 nM.
With `CN1CCCCC1CCN1c2ccccc2Sc2ccc([S+](C)[O-])cc21` (single isomer, unassigned; 3) [listing 1 of 2 here], the IC50 is 161 nM and 256 nM in assay [2]; 837 nM at D(2) dopamine receptor [11]. Further, the Kb in assay [8] was 25.1 nM. The Ki was 112 nM in assay [3]; 349 nM in assay [4]; 704 nM in [5]; 1960 nM at D(1A) dopamine receptor [6]; 304 nM at D(2) dopamine receptor [7]; 95 nM on D(3) dopamine receptor.
With `CN1CCCCC1CCN1c2ccccc2Sc2ccc([S+](C)[O-])cc21` (single isomer, unassigned; 3) [listing 2 of 2 here], the Ke in assay [12] was found to be 28 nM.
